Reference: ChEMBL document CHEMBL5512662, “Illuminating Dark Chemical Matter Using the Cell Painting Assay” (J Med Chem, 2024)

Assays:
[1] = test system: C3H 10T1/2; assay: Inhibition of purmorphamine-induced osteoblast differentiation in mouse C3H 10T1/2 cells assessed as reduction in alkaline phosphatase level preincubated for 1 hr followed by purmorphamine addition for 4 days by luminescence based assay; format: functional, cell-based
[2] = test system: Shh Light II; assay: Inhibition of purmorphamine-induced osteoblast differentiation in mouse Shh Light II cells preincubated for 1 hr followed by purmorphamine addition for 48 hrs by luminescence based reporter gene assay; format: functional, cell-based

Row | Structure (SMILES) | IC50 [1] [µM] | IC50 [2] [µM]
1 | CCOc1ccc(Oc2nc(Nc3ccc(C)cc3)nc(N(C)C)n2)nn1 | 0.32 | –
2 | CN(CCCNC(=O)c1nn(C)c2c1CS(=O)(=O)c1ccccc1-2)Cc1ccccc1 | 0.31 | 2.17
3 | COCCNC(=O)C1CCN(C(=O)c2cc3sccc3n2Cc2ccc(F)cc2)CC1 | 0.09 | 0.47
4 | COc1ccccc1CCNC(=O)CCCn1nc(C)c2c(C)n(-c3ccc(C)cc3)nc2c1=O | 0.54 | 1.4
